How the values were obtained:
SKOV3 = assay: Anti-cancer activity against ovarian cancer cells SKOV3 (cell killing in solution / in vitro cell proliferation); format: cell-based; conditions: Homo sapiens, SK-OV-3, ovarian cancer cells SKOV3
Protocol: Biotinylated LLS2 was synthesized in solution and loaded it onto a streptavidin-coated plate. The biotinylated LLS2 immobilized on the plate killed approximately 21% of SKOV3 ovarian cancer cells at 100 μM loading, 16% at 50 μM and 14% at 25 μM (FIG. 4). The killing effect of the LLS2 compound was also tested in solution. […] In addition, LLS2 can kill pancreatic cancer cell line XPA3, prostate cancer cell line PC3, colon cancer cell line HT29, breast cancer cell line MCF7 and lung cancer cell line A549 (FIG. 4).

[1] = test system: 22RV1 prostate cancer cells; assay: Cell viability of prostate cancer 22RV1 cells after 72 hours treatment; format: cell-based; conditions: Homo sapiens

Row | Compound | IC50 (SKOV3) [µM] | viability at 2.5 µM [1] [%] | viability at 5 µM [1] [%] | viability at 10 µM [1] [%]
1 | CCCC[C@H](N)C(=O)NC(CC(N)=O)c1ccc2c(c1)nc(-c1nccs1)n2CCN1CCCCC1 (stereo partly drawn) [LLS4, (2S)-2-amino-N-(3-amino-3-oxo-1-(1-(2-(piperidin-1-yl)ethyl)-2-(thiazol-2-yl)-1H-benzo[d]imidazol-5-yl)propyl)hexanamide] | > 50 |  |  | 
2 | CC(=O)OCCN(CCOC(C)=O)c1ccc(-c2nc3cc(C(CC(N)=O)N(Cc4ccc(Cl)c(Cl)c4)Cc4ccc(Cl)c(Cl)c4)ccc3n2CC23CC4CC(CC(C4)C2)C3)cc1 (centres unmarked) [LLS25, ((4-(1-(((1s,3s)-adamantan-1-yl)methyl)-5-(3-amino-1-(bis(3,4-dichlorobenzyl)amino)-3-oxopropyl)-1H-benzo[d]imidazol-2-yl)phenyl)azanediyl)bis(ethane-2,1-diyl) Diacetate] | 20.7 |  |  | 
3 | NC(=O)CC(NCc1c(Cl)cccc1Cl)c1ccc2c(c1)nc(-c1ccc(N(CCO)CCO)cc1)n2Cc1ccc(F)c(F)c1 (centres unmarked) [LLS14, 3-(2-(4-(bis(2-hydroxyethyl)amino)phenyl)-1-(3,4-difluorobenzyl)-1H-benzo[d]imidazol-5-yl)-3-((2,6-dichlorobenzyl)amino)propanamide] | 29.2 |  |  | 
4 | CC(=O)OCCN(CCOC(C)=O)c1ccc(-c2nc3cc(C(CC(N)=O)NC(=O)[C@@H](N)[C@H](C)O)ccc3n2Cc2ccc(F)c(F)c2)cc1 (stereo partly drawn) [LLS3, ((4-(5-(3-amino-1-((2S,3S)-2-amino-3-hydroxybutanamido)-3-oxopropyl)-1-(3,4-difluorobenzyl)-1H-benzo[d]imidazol-2-yl)phenyl)azanediyl)bis(ethane-2,1-diyl) Diacetate] | 37.6 |  |  | 
5 | NC(=O)CC(NCc1ccc(N(CCO)CCO)cc1)c1ccc2c(c1)nc(-c1ccc(N(CCO)CCO)cc1)n2Cc1ccc(Cl)c(Cl)c1 (centres unmarked) [LLS38, 3-((4-(bis(2-hydroxyethyl)amino)benzyl)amino)-3-(2-(4-(bis(2-hydroxyethyl)amino)phenyl)-1-(3,4-dichlorobenzyl)-1H-benzo[d]imidazol-5-yl)propanamide] | > 50 |  |  | 
6 | NC(=O)CC(NCc1ccc(Cl)c(Cl)c1)c1ccc2c(c1)nc(-c1ccc(N(CCO)CCO)cc1)n2Cc1ccc(Br)cc1 (centres unmarked) [LLS93, 3-(2-(4-(bis(2-hydroxyethyl)amino)phenyl)-1-(4-bromobenzyl)-1H-benzo[d]imidazol-5-yl)-3-((3,4-dichlorobenzyl)amino)propanamide] |  | 22 | 2 | 0
7 | NC(=O)CC(NCC1CCCCC1)c1ccc2c(c1)nc(-c1ccc(N3CCOCC3)cc1)n2Cc1ccc(C(F)(F)F)c(F)c1 (centres unmarked) [LLS96, 3-((cyclohexylmethyl)amino)-3-(1-(3-fluoro-4-(trifluoromethyl)benzyl)-2-(4-morpholinophenyl)-1H-benzo[d]imidazol-5-yl)propanamide] |  | 45 | 0 | 0
8 | NC(=O)CC(NCc1ccc(Cl)c(Cl)c1)c1ccc2c(c1)nc(-c1ccc(N(CCO)CCO)cc1)n2Cc1ccc2c(c1)OCO2 (centres unmarked) [LLS106, 3-(1-(benzo[d][1,3]dioxol-5-ylmethyl)-2-(4-(bis(2-hydroxyethyl)amino)phenyl)-1H-benzo[d]imidazol-5-yl)-3-((3,4-dichlorobenzyl)amino)propanamide] |  | 30 | 2 | 0
9 | NC(=O)CC(NCC1CCCCC1)c1ccc2c(c1)nc(-c1cccc(OCCN3CCOCC3)c1)n2Cc1ccc(OC(F)(F)F)cc1 (centres unmarked) [LLS91, 3-((cyclohexylmethyl)amino)-3-(2-(3-(2-morpholinoethoxy)phenyl)-1-(4-(trifluoromethoxy)benzyl)-1H-benzo[d]imidazol-5-yl)propanamide] |  | 33 | 7 | 0
10 | NC(=O)CC(NCc1ccc(Cl)c(Cl)c1)c1ccc2c(c1)nc(-c1ccc(N(CCO)CCO)cc1)n2CC1CCCCC1 (centres unmarked) [LLS104, 3-(2-(4-(bis(2-hydroxyethyl)amino)phenyl)-1-(cyclohexylmethyl)-1H-benzo[d]imidazol-5-yl)-3-((3,4-dichlorobenzyl)amino)propanamide] |  | 82 | 31 | 1
11 | NC(=O)CC(NCC1CCCCC1)c1ccc2c(c1)nc(-c1ccc(N3CCOCC3)cc1)n2CCc1ccccn1 (centres unmarked) [LLS109, 3-((cyclohexylmethyl)amino)-3-(2-(4-morpholinophenyl)-1-(2-(pyridin-2-yl)ethyl)-1H-benzo[d]imidazol-5-yl)propanamide] |  | 98 | 88 | 88
12 | NC(=O)CC(NCc1ccc(Cl)c(Cl)c1)c1ccc2c(c1)nc(-c1ccc(N(CCO)CCO)cc1)n2Cc1ccc(Cl)c(C(F)(F)F)c1 (centres unmarked) [LLS97, 3-(2-(4-(bis(2-hydroxyethyl)amino)phenyl)-1-(4-chloro-3-(trifluoromethyl)benzyl)-1H-benzo[d]imidazol-5-yl)-3-((3,4-dichlorobenzyl)amino)propanamide] |  | 23 | 0 | 0
13 | NC(=O)CC(NCc1ccc(Cl)c(Cl)c1)c1ccc2c(c1)nc(-c1ccc(N(CCO)CCO)cc1)n2CCc1ccc(OC(F)(F)F)cc1 (centres unmarked) [LLS100] |  | 99 | 28 | 0
14 | CN(C)CCCOc1ccc(-c2nc3cc(C(CC(N)=O)NCc4ccc(Cl)c(Cl)c4)ccc3n2Cc2ccc(Cl)c(Cl)c2)cc1 (centres unmarked) [LLS85, 3-(1-(3,4-dichlorobenzyl)-2-(4-(3-(dimethylamino)propoxy)phenyl)-1H-benzo[d]imidazol-5-yl)-3-((3,4-dichlorobenzyl)amino)propanamide] |  | 65 | 1 | 0
15 | NC(=O)CC(NCc1ccc(Cl)c(Cl)c1)c1ccc2c(c1)nc(-c1ccc(N(CCO)CCO)cc1)n2Cc1cccc2ccccc12 (centres unmarked) [LLS102, 3-(2-(4-(bis(2-hydroxyethyl)amino)phenyl)-1-(naphthalen-1-ylmethyl)-1H-benzo[d]imidazol-5-yl)-3-((3,4-dichlorobenzyl)amino)propanamide] |  | 23 | 0 | 0
16 | NC(=O)CC(NCC1CCCCC1)c1ccc2c(c1)nc(-c1ccncc1)n2Cc1ccc(OC(F)(F)F)cc1 (centres unmarked) [LLS88, 3-((cyclohexylmethyl)amino)-3-(2-(pyridin-4-yl)-1-(4-(trifluoromethoxy)benzyl)-1H-benzo[d]imidazol-5-yl)propanamide] |  | 75 | 4 | 0
17 | NC(=O)CC(NCC1CCCCC1)c1ccc2c(c1)nc(-c1ccc(N(CCO)CCO)cc1)n2Cc1ccc(Cl)c(Cl)c1 (centres unmarked) [LLS101, 3-(2-(4-(bis(2-hydroxyethyl)amino)phenyl)-1-(3,4-dichlorobenzyl)-1H-benzo[d]imidazol-5-yl)-3-((cyclohexylmethyl)amino)propanamide] |  | 20 | 1 | 0
18 | CN1CCN(c2ccc(-c3nc4cc(C(CC(N)=O)NCC5CCCCC5)ccc4n3Cc3ccc(OC(F)(F)F)cc3)cc2)CC1 (centres unmarked) [LLS90, 3-((cyclohexylmethyl)amino)-3-(2-(4-(4-methylpiperazin-1-yl)phenyl)-1-(4-(trifluoromethoxy)benzyl)-1H-benzo[d]imidazol-5-yl)propanamide] |  | 1 | 0 | 0

Reference: patent publication US10844052B2, “LLS compounds for treatment of cancer” (THE REGENTS OF THE UNIVERSITY OF CALIFORNIA, priority 2016, dated 2020)
